Legend:
Type in all cases: cell-based
[1] = test system: L929 cells; assay: L929 cell viability (necroptosis) assay; settings: Mus musculus, TNF-α (40 ng/mL), z-VAD (20 μM), 16 h
Protocol: (§1) L929 cells were added to 96-well plate. The compounds at different concentrations (0.3, 1.0, 3.0, 10.0, 20.0 μM) were then preprocessed for two hours. TNF-α (40 ng/mL), and z-VAD (20 μM) were added, and the mixture was incubated for 16 h. Quantitative analysis of cell survival was conducted. DMSO pretreatment was used as a negative control. Concentration for 50% of maximal effect was calculated according to the curve of the survival rate measured at different concentrations. FIG. 3 depicts the EC50 curves of compound A3.

[2] = test system: HT-29 cells; assay: HT-29 cell viability (necroptosis) assay; settings: Homo sapiens, TNF-α (40 ng/mL), Smac mimetic (100 nM), z-VAD (20 μM), 40 h; for EC50: from survival rate curve; for viability at 20 µM: compound at 20 μM, read-out: HT-29(20 μM) Survival
Protocol: Human colon cancer HT-29 cells were used in a necroptosis assay. For this assay, HT-29 cells were added to 96-well plates. The compounds at different concentrations (0.3, 1.0, 3.0, 10.0, 20.0 μM) were then preprocessed for two hours. TNF-α (40 ng/mL), Smac mimetic (100 nM) and z-VAD (20 μM) were added, and the mixture was incubated for 40 h. Quantitative analysis of cell viability was conducted. DMSO pretreatment group was used as a negative control. Concentration for 50% of maximal effect was calculated according to the curve of the survival rate measured at different concentrations. FIG. 1 depicts the EC50 curves of compound A16.

[3] = test system: MEF cells; assay: MEF cell viability (necroptosis) assay; settings: Mus musculus, TNF-α (40 ng/mL), Smac mimetic (100 nM), z-VAD (20 μM), 12 h
Protocol: as §1, with “MEF cells” for “L929 cells”, “ng/mL), Smac mimetic (100 nM)” for “ng/mL),”, “for 12” for “for 16”, “pretreatment group” for “pretreatment”, “FIG. 2” for “FIG. 3”, “compound A9.” for “compound A3.”

| SMILES | EC50 [1] | EC50 [2] | EC50 [3] | viability at 20 µM [2] |
| --- | --- | --- | --- | --- |
| O=S1(=O)CCc2cc3nccc(Nc4ccc5scnc5c4)c3cc21 [Compound B1, 8-(benzo[d]thiazol-5-ylamino)-2,3-dihydrothieno[2,3-g]quinoline 1,1-dioxide] | 64000 nM | 1740 nM | – | – |
| O=S1(=O)C=C(c2ccccc2)c2cc3nccc(Nc4ccc5scnc5c4)c3cc21 [Compound A22] | – | 450 nM | 830 nM | – |
| CCOC1=C(C)S(=O)(=O)c2cc3c(Nc4ccc5scnc5c4)ccnc3cc21 [Compound A20] | 420 nM | 280 nM | 310 nM | – |
| Cn1ccc(C2=CS(=O)(=O)c3cc4c(Nc5ccc6scnc6c5)ccnc4cc32)n1 [Compound A33] | – | 350 nM | 380 nM | – |
| CC1(C)C(=O)c2cc3nccc(Nc4ccc5scnc5c4)c3cc2S1(=O)=O [Compound B4, 8-(benzo[d]thiazol-5-ylamino)-2,2-dimethylthieno[2,3-g]quinolin-3(2H)-one 1,1-dioxide] | – | 2080 nM | 9330 nM | – |
| C=C1c2cc3nccc(Nc4ccc5scnc5c4)c3cc2S(=O)(=O)C1(C)C [Compound B8, 8-(benzo[d]thiazol-5-ylamino)-2,2-dimethyl-3-methylene-2,3-dihydrothieno[2,3-g]quinoline 1,1-dioxide] | – | 930 nM | 1770 nM | – |
| CC1=CS(=O)(=O)c2cc3c(Nc4ccc5scnc5c4)ccnc3cc21 [Compound A7] | 240 nM | 380 nM | – | – |
| CC(C)OC1=CS(=O)(=O)c2cc3c(Nc4ccc5scnc5c4)ccnc3cc21 [Compound A14] | – | 280 nM | 290 nM | – |
| O=S1(=O)CC2(OCCO2)c2cc3nccc(Nc4ccc5scnc5c4)c3cc21 [Compound B2, 8-(benzo[d]thiazol-5-ylamino)-2H-spiro[thieno[2,3-g]quinoline-3,2′-[1,3]dioxolane]1,1-dioxide] | 430 nM | 300 nM | 435 nM | – |
| CC1=C(OCC2CC2)c2cc3nccc(Nc4ccc5scnc5c4)c3cc2S1(=O)=O [Compound A21] | 8730 nM | 310 nM | 440 nM | – |
| COCCOC1=CS(=O)(=O)c2cc3c(Nc4ccc5scnc5c4)ccnc3cc21 [Compound A17] | – | 260 nM | 300 nM | – |
| CC1=Cc2cc3nccc(Nc4ccc5scnc5c4)c3cc2S1(=O)=O [Compound A3] | 1940 nM | 620 nM | – | – |
| Cn1cc(C2=CS(=O)(=O)c3cc4c(Nc5ccc6scnc6c5)ccnc4cc32)cn1 [Compound A31] | – | 1030 nM | – | – |
| O=S1(=O)C=C(c2ccncc2)c2cc3nccc(Nc4ccc5scnc5c4)c3cc21 [Compound A28] | – | 1010 nM | – | – |
| O=S1(=O)C=C(c2cn[nH]c2)c2cc3nccc(Nc4ccc5scnc5c4)c3cc21 [Compound A30] | – | 97 nM | – | – |
| COc1ccc(C)c(Nc2ccnc3cc4c(cc23)S(=O)(=O)C(C)=C4)c1 [Compound A47] | – | – | – | 17.5% |
| CC1=Cc2cc3nccc(Nc4cc(N)ncc4C)c3cc2S1(=O)=O [Compound A63] | – | – | – | 48.8% |
| CC1=Cc2cc3nccc(Nc4ccc5c(c4)CNCC5)c3cc2S1(=O)=O [Compound A41] | – | – | – | 9.8% |
| CC1=C(C)S(=O)(=O)c2cc3c(Nc4cc(O)ccc4C)ccnc3cc21 [Compound A88] | – | – | – | 41.3% |

| SMILES | EC50 [1] | EC50 [2] | EC50 [3] | viability at 20 µM [2] |
| --- | --- | --- | --- | --- |
| O=S1(=O)C=C(C2CC2)c2cc3nccc(Nc4cc(O)ccc4F)c3cc21 [Compound A89] | – | 220 nM | – | – |
| O=S1(=O)C=C(C2CC2)c2cc3nccc(Nc4cncc(O)c4)c3cc21 [Compound A102] | – | 9000 nM | – | – |
| CCOC1=CS(=O)(=O)c2cc3c(Nc4ccc5scnc5c4)ccnc3cc21 [Compound A13] | 780 nM | 430 nM | 200 nM | – |
| CC1=C(C)S(=O)(=O)c2cc3c(Nc4ccc5scnc5c4)ccnc3cc21 [Compound A8] | – | 530 nM | – | – |
| O=S1(=O)C=C(C2CC2)c2cc3nccc(Nc4ccc5cn[nH]c5c4)c3cc21 [Compound A91] | – | 160 nM | – | – |
| COc1ccc(C2=CS(=O)(=O)c3cc4c(Nc5ccc6scnc6c5)ccnc4cc32)cc1 [Compound A23] | – | 1040 nM | – | – |
| CC1=Cc2cc3nccc(Nc4n[nH]c5ccc(F)cc45)c3cc2S1(=O)=O [Compound A36] | – | 5790 nM | – | – |
| CC1=Cc2cc3nccc(Nc4ccc(O)c(F)c4)c3cc2S1(=O)=O [Compound A54] | – | – | – | 31.9% |
| CCC1=CS(=O)(=O)c2cc3c(Nc4ccc5scnc5c4)ccnc3cc21 [Compound A10] | – | 1380 nM | – | – |
| CC(C)C1=Cc2cc3nccc(Nc4ccc5scnc5c4)c3cc2S1(=O)=O [Compound A5] | – | 760 nM | – | – |
| O=S1(=O)C=C(c2ccc(F)cc2)c2cc3nccc(Nc4ccc5scnc5c4)c3cc21 [Compound A26] | – | 570 nM | – | – |
| COc1c2c(cc3c(Nc4ccc5scnc5c4)ccnc13)S(=O)(=O)C=C2 [Compound A108] | – | 630 nM | – | – |
| O=S1(=O)C=C(C2CC2)c2cc3nccc(Nc4ccn5ccnc5c4)c3cc21 [Compound A104] | – | 12000 nM | – | – |
| CC1=Cc2cc3nccc(Nc4ccc5cn[nH]c5c4)c3cc2S1(=O)=O [Compound A35] | – | – | – | 33% |
| O=S1(=O)C=C(C2CC2)c2cc3nccc(Nc4ccc5scnc5c4)c3cc21 [Compound A9] | 210 nM | 85 nM | 240 nM | – |
| O=S1(=O)C=C(NCCO)c2cc3nccc(Nc4ccc5scnc5c4)c3cc21 [Compound A18] | – | 310 nM | – | – |
| CNCCOC1=CS(=O)(=O)c2cc3c(Nc4ccc5scnc5c4)ccnc3cc21 [Compound A111] | – | – | – | 42% |
| CC1(O)c2cc3nccc(Nc4ccc5scnc5c4)c3cc2S(=O)(=O)C1(C)C (stereo not drawn) [Compound B10, 8-(benzo[d]thiazol-5-ylamino)-3-hydroxy-2,2,3-trimethyl-2,3-dihydrothieno[2,3-g]quinoline 1,1-dioxide] | – | – | – | 36.4% |
| Cc1ccc(O)cc1Nc1ccnc2cc3c(cc12)S(=O)(=O)C=C3C1CC1 [Compound A95] | – | 300 nM | – | – |

From patent US12612413B2, “Heteroaryl compounds as inhibitors of programmed necrosis pathway, composition and method using the same” (ACCRO BIOSCIENCE INC., priority 2020, dated 2026)
